According to patent US8912184B1, “Therapeutic and diagnostic methods” (Alzheimer's Institute of America, Inc., priority 2010, dated 2014):
pIC50: −log10 of the molar value. Where two headings read alike, the source gives them in different places.

Key:
cell lines = test: NA rescue phenotype of cell lines treated with Nampt inhibitor (Nicotinic Acid Rescue Cytotoxicity Assays); type: cell-based
Description: Cell lines were treated with a fixed dose of Exemplary Compound A and screened for NA rescue and Naprt1 expression by immunoblotting and qRT-PCR (Table 3). […] The 176 cell lines included 5 normal (non-cancerous) cell lines and 3 primary cell lines (italicized in the table), all of which rescued. Naprt1 was quantified by western blotting and qRT-PCR in 164 and 123 of the 176 cell lines, respectively. […] A statistically significant (p value <0.0001) correlation existed between a NA rescue phenotype and Naprt1 protein or mRNA expression levels.
Additionally, Nicotinic Acid (NA) rescue of cytotoxicity of Nampt inhibitors was assessed by two distinct methods. In the first method, Nampt1 inhibitor cytotoxicity was evaluated in the presence and absence of exogenous nicotinic acid (NA) at a fixed concentration. […] Twenty four hours after cells were plated, the media was removed and replaced with media containing 10 μM nicotinic acid. Compounds were then immediately added. Cell viability was then assessed at 72 h.
Cell viability was then assessed at 72 h.

HCT116 cells = test: NAD measured in cellular lysates (NAD depletion) of HCT116 cells; type: cell-based, human; settings: for pIC50: Homo sapiens
Description: NAD in cells was measured by modification of existing protocols (Lee, H. I., et al. Exp. Mol. Med. 40, 246-253 (2008)). MCF-10A cells stably transduced with the PIK3CA(H1047R) oncogene were seeded in 96 well plates at very high density (100% confluence) and allowed to settle overnight. Test compound dissolved in DMSO was added and drug incubation proceeded for 20-24 hours. Cells were washed with PBS and harvested by incubation in 25 μL 0.5 M perchloric acid (HClO4) followed by vigorous shaking at 4° C. for 15 minutes. Acidic cell lysates were neutralized by adding 8 μL of 2 M KOH/0.2 M K2HPO4. The entire lysate volume was transferred to a centrifuge plate and spun at 3000 rpm in a table top centrifuge (4° C.) for 5 minutes to clear the precipitate. Lysate was assayed for both NAD and ATP. For NAD measurement, 10 μL lysate from the centrifuged plate was added to 90 μL of reaction solution in Costar 96 half-well plates (Corning, Corning, N.Y.). […]. Reactions were allowed to proceed for 1 hour at room temperature, after which time fluorescence was read on a Gemini plate reader as described above.
Using such methods NAD Depeletion was followed in lysates of Naprt-proficient HCT116 cells, exposed to Exemplary Compound A, as shown in FIG. 4 (a). […].
Kinetics of NAD and ATP depletion in Naprt1-proficient HCT116 cells induced by Exemplary Compound A was studied using the assays described above. HCT116 cells were treated with 8.5 nM Exemplary Compound A and cellular NAD and ATP were measured at various times.
Potency of Exemplary Compound A as a function of time of exposure was also studied using the assays described above. Cells were treated with a range of Exemplary Compound A concentration for varying times of exposure, and IC50 values for NAD and ATP depletion were determined. […].

[1] = of 176 cell lines tested, fixed dose

How did the “Rescuable by NA?” value (cell lines; A172, glioma) turn out when O=C(NCc1cccnc1)Nc1ccc(COc2ccccc2-c2ccccc2)cc1 [Exemplary Compound A, 1-{4-[(biphenyl-2-yloxy)methyl]phenyl}-3-(pyridin-3-ylmethyl)urea] was run?
Its value is “no”.

What about the “Rescuable by NA?” value (cell lines; COLO-205, colorectal) of the same molecule?
Its value is “yes”.

What about the “Rescued by NA? (partial indicates <70% rescue)” value (cell lines; DEL cells (lymphoma)) of the same molecule?
Its value is “Y (partial)”.

And the “Rescuable by NA?” value (cell lines; DMS-114, SCLC)?
The value was “yes”.

And the “Rescued by NA? (partial indicates <70% rescue)” value (cell lines; H4 cells (brain; neuroglioma))?
Its value is “Y (partial)”.

What about the “Rescuable by NA?” value (cell lines; HCC827, NSCLC) of the same molecule?
Its value is “no”.

And the “Rescuable by NA?” value (cell lines; HCT-116, colorectal)?
Its value is “yes”.

And the “Rescuable by NA?” value (cell lines; HT29, colorectal)?
Its value is “yes”.

What about the “Rescuable by NA?” value (cell lines; HT-1080, fibrosarcoma) of the same molecule?
The value was “no”.

And the “Rescued by NA? (partial indicates <70% rescue)” value (cell lines; Hepa1-6 cells (mouse; hepatoma))?
Its value is “Y (partial)”.

What about the “Rescued by NA? (partial indicates <70% rescue)” value (cell lines; MOLP-8 cells (myeloma)) of the same molecule?
The value was “Y (partial)”.

And the “Rescued by NA? (partial indicates <70% rescue)” value (cell lines; MONO-MAC-6 cells (lymphocytic leukemia))?
The value was “Y (partial)”.

And the “Rescuable by NA?” value (cell lines; MiaPaCa2, pancreatic)?
The value was “no”.

What about the “Rescuable by NA?” value (cell lines; NCI-H82, SCLC) of the same molecule?
The value was “yes”.

What about the “Rescuable by NA?” value (cell lines; NCI-H460, NSCLC) of the same molecule?
Its value is “no”.

What about the “Rescuable by NA?” value (cell lines; NCI-H522, NSCLC) of the same molecule?
Its value is “no”.

And the “Rescued by NA? (partial indicates <70% rescue)” value (cell lines; NCI-H596 cells (lung (NSCLC)))?
Its value is “Y (partial)”.

And the “Rescuable by NA?” value (cell lines; NCI-H929, multiple myeloma)?
The value was “no”.

What about the “Rescuable by NA?” value (cell lines; NCI-H1650, NSCLC) of the same molecule?
Its value is “no”.

What about the “Rescuable by NA?” value (cell lines; NCI-N87, gastric) of the same molecule?
Its value is “yes”.

And the “Rescued by NA? (partial indicates <70% rescue)” value (cell lines; NOMO-1 cells (myelogenous leukemia))?
Its value is “Y (partial)”.

And the “Rescuable by NA?” value (cell lines; OCI-Ly19, DLBCL (NHL))?
Its value is “yes”.

And the “Rescuable by NA?” value (cell lines; OPM-2, multiple myeloma)?
The value was “no”.

What about the “Rescuable by NA?” value (cell lines; OVCAR-8, ovarian) of the same molecule?
The value was “yes”.

And the “Rescued by NA? (partial indicates <70% rescue)” value (cell lines; PFSK-1 cells (brain; malignant neuroectodermal tumor))?
Its value is “Y (partial)”.

What about the “Rescued by NA? (partial indicates <70% rescue)” value (cell lines; RPMI-8226 cells (myeloma)) of the same molecule?
Its value is “Y (partial)”.

And the “Rescuable by NA?” value (cell lines; SF-295, glioma)?
Its value is “no”.

What about the “Rescued by NA? (partial indicates <70% rescue)” value (cell lines; SKM-1 cells (myelogenous leukemia)) of the same molecule?
The value was “Y (partial)”.

And the “Rescued by NA? (partial indicates <70% rescue)” value (cell lines; SR cells (lymphoma))?
Its value is “Y (partial)”.

What about the “Rescued by NA? (partial indicates <70% rescue)” value (cell lines; SU-DHL-4 cells (lymphoma)) of the same molecule?
Its value is “Y (partial)”.

What about the “Rescuable by NA?” value (cell lines; SU-DHL-5, DLBCL (NHL)) of the same molecule?
Its value is “no”.

And the “Rescued by NA? (partial indicates <70% rescue)” value (cell lines; SU-DHL-8 cells (lymphoma))?
The value was “Y (partial)”.

And the “Rescued by NA? (partial indicates <70% rescue)” value (cell lines; SUP-M2 cells (lymphoma))?
The value was “Y (partial)”.

What about the “Rescuable by NA?” value (cell lines; U-87MG, glioma) of the same molecule?
Its value is “no”.

And the “Fraction not rescued by NA” value (cell lines; bladder, 1 cell line tested)?
The value was 0%.

And the “Fraction not rescued by NA” value (cell lines; brain, 30 cell lines tested)?
The value was 53%.

What about the “Fraction not rescued by NA” value (cell lines; breast, 7 cell lines tested) of the same molecule?
Its value is 0%.

What about the “Fraction not rescued by NA” value (cell lines; colon, 6 cell lines tested) of the same molecule?
The value was 0%.

And the “Fraction not rescued by NA” value (cell lines; fibrosarcoma, 5 cell lines tested)?
Its value is 20%.

What about the “Fraction not rescued by NA” value (cell lines; gastric, 1 cell line tested) of the same molecule?
The value was 0%.

And the “Fraction not rescued by NA” value (cell lines; kidney, 5 cell lines tested)?
The value was 20%.

And the “Fraction not rescued by NA” value (cell lines; liver, 4 cell lines tested)?
Its value is 25%.

And the “Fraction not rescued by NA” value (cell lines; lung, NSCLC, 26 cell lines tested)?
Its value is 27%.

And the “Fraction not rescued by NA” value (cell lines; lung, small cell, 7 cell lines tested)?
Its value is 14%.

And the “Fraction not rescued by NA” value (cell lines; lymphocytic leukemia, 6 cell lines tested)?
Its value is 17%.

What about the “Fraction not rescued by NA” value (cell lines; lymphoma, 16 cell lines tested) of the same molecule?
The value was 38%.

What about the “Fraction not rescued by NA” value (cell lines; melanoma, 3 cell lines tested) of the same molecule?
The value was 0%.

And the “Fraction not rescued by NA” value (cell lines; myelogenous leukemia, 10 cell lines tested)?
The value was 10%.

What about the “Fraction not rescued by NA” value (cell lines; myeloma, 9 cell lines tested) of the same molecule?
Its value is 44%.

What about the “Rescued by NA? (partial indicates <70% rescue)” value (cell lines; no.11 cells (brain; glioma, anaplastic)) of the same molecule?
The value was “Y (partial)”.

What about the “number of cell lines completely rescued by NA” value (cell lines; [1]) of the same molecule?
The value was 113.

What about the “number of cell lines partially rescued by NA” value (cell lines; [1]) of the same molecule?
Its value is 16.

And the “number of cell lines that did not rescue with NA” value (cell lines; [1])?
The value was 47.

What about the “Fraction not rescued by NA” value (cell lines; osteosarcoma, 6 cell lines tested) of the same molecule?
Its value is 50%.

And the “Fraction not rescued by NA” value (cell lines; ovary, 3 cell lines tested)?
Its value is 0%.

What about the “Fraction not rescued by NA” value (cell lines; pancreas, 7 cell lines tested) of the same molecule?
Its value is 14%.

What about the “cancer cell lines that failed to be rescued or were only partially rescued by NA” value (cell lines; panel of 147 cancer cell lines) of the same molecule?
Its value is 38%.

What about the “Fraction not rescued by NA” value (cell lines; prostate, 2 cell lines tested) of the same molecule?
The value was 0%.

And the “NAD depletion reached before loss of ATP initiated” value (HCT116 cells; HCT116 cells, 8.5 nM)?
Its value is > 90%.

And the pIC50 (HCT116 cells; HCT-116, 0.5 h, exposure 30 min, read-out: potency (IC50) for NAD depletion)?
Its pIC50 is 7.64.

And the pIC50 (HCT116 cells; HCT-116, 24 h, HCT116 cells, 24 h, absence of 10 μM NA, read-out: IC50 NAD depletion)?
Its pIC50 is 9.59.

What about the pIC50 (HCT116 cells; HCT-116, 24 h, HCT116 cells, 24 h, presence of 10 μM NA, read-out: IC50 NAD depletion) of the same molecule?
The pIC50 was < 6.00.

What about the pIC50 (HCT116 cells; HCT-116, 48 h, after 48 h exposure, read-out: potency (IC50) for NAD depletion) of the same molecule?
Its pIC50 is ~9.22.
